From patent publication US4269848A, “5-Substituted indan-2-carboxylic acid and functional derivatives” (Lipha, Lyonnaise Industrielle Pharmaceutique, priority 1976, dated 1981)
Counter-ions that a name gives are not always drawn.

Key:
[1] = Acute toxicity, LD 50 (oral route), mice; details: mouse, in vivo
From the text: A--The substances are of low toxicity. For example, the LD 50 value (oral route), determined in mice, of various compounds in accordance with the present invention are shown in column A of Table I.

[2] = tested on: spasms of pain caused by the intraperitoneal injection of a solution of acetic acid; assay: Analgesic activity, acetic acid induced spasms of pain (Koster et al.); format: in vivo; details: mouse, oral; dose reducing spasms of pain by 50%; read-out: AD50, Acetic Acid
Description: B--Analgesic activity in the mouse was determined by the method of Koster et al. (Fed. Proc. 1959, Vol. 18, page 412). The active dose 50 (AD50) value for various compounds in accordance with the present invention was determined, namely, that dose which, when administered orally, reduces by 50% the spasms of pain caused by the intraperitoneal injection of a solution of acetic acid.

[3] = tested on: erythema produced by ultra violet radiation; assay: Protective effect against erythema from ultra violet radiation (Winder et al.); format: in vivo, albino guinea pigs; details: Cavia porcellus; albino guinea pig, oral; amount reducing erythema by 50%; read-out: AD50, U.V.
Description: D--The protective effect against inflammation resulting from exposure to radiation was determined in albino guinea pigs using the method of Winder et al (Arch. Inv. Pharmacodyn. 1958, Vol. 116, page 261). The AD50 value was determined for the test substance, namely the amount which, when administered to the animal orally, reduced by 50% the erythema produced by exposing the shaved dorsal skin of the guinea pig to ultra violet radiation.

[4] = tested on: carrageenin-induced edema; assay: Anti-inflammatory activity, carrageenin-induced edema test (Winter et al.); format: in vivo; details: rat, oral; dose inhibiting edema by 30%; read-out: AD30, Carrageenin
From the text: The protection afforded, by oral administration of the compound to a rat against edema induced by injecting a suspension of carrageenin under the arch of the foot of the animal was investigated. The AD30 dose is that which inhibits the edema by 30%.

platelets = assay: In vitro inhibition of platelet aggregation induced by collagen (Born); format: cell-based; details: read-out: minimal active concentration, Platelet Aggregation Induced By Collagen
Description: E--The anti-inflammatory activity was also determined by the aggregation-inhibiting effect of the compounds in accordance with the present invention, in vitro, on platelets the aggregation of which was induced by collagen, in accordance with the method of Born (Journal of Physiology, 1962, Vol. 162, page 67). It is known that compounds which inhibit the activity or quantity of prostaglandin synthetase will inhibit the formation of prostaglandin PGE2 and the inflammatory and pyretic effect thereof. Since prostaglandin PGE2 also causes an increase in platelet aggregation, this test is an effective indication of anti-inflammatory and anti-pyretic activity due to inhibition of prostaglandin synthetase.

[5] = Experiment A: clinical case studies, anti-inflammatory activity, oral administration; format: in vivo
Description: The following clinical experimentation was carried out to clinically test various compounds in accordance with the present invention for their anti-inflammatory, analgesic and platelet aggregation or clumping inhibition activites. […] Diagonsis: Seropositive, classic, rheumatoid polyarthritis, radioclinical stage IV Treatment: 600 mg/day for 3 weeks Diagnosis: Ankylosing spondylarthrittis with signs of peripheral joint inflammation Treatment: 600 mg/day for 3 weeks Diagnosis: Psoriatic peripheral rheumatism Treatment: 600 mg/day for 15 days

[6] = Case 1, rheumatoid polyarthritis, oral 600 mg/day for 3 weeks
[7] = Case 2, ankylosing spondylarthritis, oral 600 mg/day for 3 weeks
[8] = Case 3, psoriatic peripheral rheumatism, oral 600 mg/day for 15 days

| SMILES | LD50 [1] [mg/kg] | ED50 [2] [mg/kg] | ED50 [3] [mg/kg] | ED30 [4] [mg/kg] | minimal effective concentration (platelets) [µg/mL] | further results |
| --- | --- | --- | --- | --- | --- | --- |
| CCN(CC)CCNC(=O)C1Cc2ccc(C(=O)c3cc(Cl)ccc3Cl)cc2C1 (stereo not drawn) [N-[2'-(N',N'-diethylaminoethyl)]5-(2',5'-dichlorobenzoyl)-indan-2-carboxamide] | 720 | 15 | 50 | 25 | 2.5 |  |
| Cc1ccsc1C(=O)c1ccc2c(c1)CC(C(=O)O)C2 (stereo not drawn) [5-(3'-Methyl-2'-thenoyl)-indan-2-carboxylic acid] | 1200 | 37 | 25 | 26 | 10 |  |
| CN(C)c1ccc(C(=O)c2ccc3c(c2)CC(C(=O)O)C3)cc1 (stereo not drawn) [5-(4'-dimethylaminobenzoyl)-indan-2-carboxylic acid] | 960 | 3 | 20 | 14 | 0.5 |  |
| CS(=O)(=O)c1ccc(C(=O)c2ccc3c(c2)CC(C(=O)O)C3)cc1 (stereo not drawn) [5-(p-methylsulfonylbenzoyl)-indan-2-carboxylic acid] | 2800 | 35 | 10 | 40 | 1 |  |
| O=C(c1ccc2c(c1)CC(C(=O)O)C2)c1ccco1 (stereo not drawn) [5-(2'-furoyl)-indan-2-carboxylic acid, 5-(2'-Furoyl)-indan-2-carboxylic acid] | 1000 | 11 | 14 | 23 | 1 |  |
| CCN(CC)CCOC(=O)C1Cc2ccc(C(=O)c3cccs3)cc2C1 (stereo not drawn) [2'-(N,N-diethylaminoethyl) 5-(2'-thenoyl)-indan-2-carboxylate, hydrochloride] | 2160 | 4 | 10 | 8 | 0.25 |  |
| CN(C)S(=O)(=O)c1ccc(C(=O)c2ccc3c(c2)CC(C(=O)O)C3)cc1 (stereo not drawn) [5-(p-dimethylaminosulfonylbenzoyl)-indan-2-carboxylic acid] | 2600 | 80 | > 300 | 160 | 10 |  |
| CCOC(=O)C1Cc2ccc(C(=O)c3ccc(NC(C)=O)c(Cl)c3)cc2C1 (stereo not drawn) [Ethyl 5-(4'-acetamido-3'-chlorobenzoyl)-indan-2-carboxylate] | 3200 | 35 | 80 | 60 | 5 |  |
| COc1ccc(C(=O)c2ccc3c(c2)CC(C(=O)O)C3)cc1 (stereo not drawn) [5-(4'-Methoxybenzoyl)-indan-2-carboxylic acid] | 650 | 6 | 34 | 13 | 2.5 |  |
| Cc1ccc(C(=O)c2ccc3c(c2)CC(C(=O)O)C3)o1 (stereo not drawn) [5-(5'-Methyl-2'-furoyl)-indan-2-carboxylic acid] | 2400 | 8 | 16 | 10 | 1 |  |
| CCN(CC)CCOC(=O)C1Cc2ccc(C(=O)c3ccco3)cc2C1 (stereo not drawn) [2'-(N,N-diethylaminoethyl) 5-(2'-furoyl)-indan-2-carboxylate] | 1200 | 8 | 20 | 18 | 1 |  |
| CCN(CC)CCNC(=O)C1Cc2ccc(C(=O)c3cccs3)cc2C1 (stereo not drawn) [N-[2'-(N',N'-diethylaminoethyl)]5-(2'-thenoyl)-indan-2-carboxamide] | 660 | 2.5 | 10 | 8 | 0.25 |  |
| O=C(c1ccccc1)c1ccc2c(c1)CC(C(=O)O)C2 (stereo not drawn) [5-benzoyl-indan-2-carboxylic acid] | 2100 | 40 | 40 | 18 | 2.5 |  |
| O=C(c1ccc2c(c1)CC(C(=O)O)C2)c1cccs1 (stereo not drawn) [5-(2'-thenoyl)-indan-2-carboxylic acid] | 1200 | 6.5 | 21 | 10 | 2.5 |  |
| Cc1ccc(C(=O)c2ccc3c(c2)CC(C(=O)O)C3)s1 (stereo not drawn) [5-(5'-Methyl-2'-thenoyl)-indan-2-carboxylic acid] | 3000 | 12 | 14 | 7.5 | 1 | Tolerance ([5]; Case 1, oral 600 mg/day for 3 weeks): Very good clinical and biological tolerance; Conclusion [5, 6]: Good result; erythrocyte sedimentation rate (ESR) [5, 6]: decrease; mobility [5, 6]: Improved mobility; morning stiffness [5, 6]: Decrease; peripheral pain [5, 6]: Decrease; Conclusion [5, 7]: Good result; analgesic effect [5, 7]: Good analgesic effect; articular perimeters [5, 7]: decrease in articular perimeters; effectiveness compared with phenylbutazone [5, 7]: As effective as phenylbutazone; mobility [5, 7]: Good mobility; Tolerance ([5]; Case 2, oral 600 mg/day for 3 weeks): Good clinical and biological tolerance; Tolerance ([5]; Case 3, oral 600 mg/day for 15 days): Good clinical and biological tolerance; Conclusion [5, 8]: Very good result; articular perimeter [5, 8]: decrease in articular perimeter; local heat [5, 8]: decrease in local heat; morning pain [5, 8]: Decrease in morning pain |
| O=C(c1ccc2c(c1)CC(C(=O)O)C2)c1cc(Cl)c(Cl)s1 (stereo not drawn) [5-(4',5'-dichloro-2'-thenoyl)-indan-2-carboxylic acid] | 180 | 30 | 90 | 42 | 7.5 |  |
| CCN(CC)CCNC(=O)C1Cc2ccc(C(=O)c3ccccc3)cc2C1 (stereo not drawn) [N-[2'-(N',N'-diethylaminoethyl)] 5-benzoyl-indan-2-carboxamide] | 1100 | 30 | 25 | 9 | 2.5 |  |
| O=C(c1ccoc1)c1ccc2c(c1)CC(C(=O)O)C2 (stereo not drawn) [5-(3'-furoyl)-indan-2-carboxylic acid, 5-(3'-Furoyl)-indan-2-carboxylic acid] | 2400 | 16 | 18 | 20 | 5 |  |
| NS(=O)(=O)c1ccc(C(=O)c2ccc3c(c2)CC(C(=O)O)C3)cc1 (stereo not drawn) [5-(p-sulfamidobenzoyl)-indan-2-carboxylic acid] | > 3200 | 25 | 90 | 43 | 5 |  |
| COC(=O)C1Cc2ccc(C(=O)c3ccco3)cc2C1 (stereo not drawn) [methyl 5-(2'-furoyl)-indan-2-carboxylate, Methyl 5-(2'-furoyl)-indan-2-carboxylate] | 3200 | 9 | 19 | 13 | 1 |  |
